According to ChEMBL document CHEMBL5385878, “Synthesis and structure-activity optimization of 7-azaindoles containing aza-β-amino acids targeting the influenza PB2 subunit” (Eur J Med Chem, 2023):
Calls of active or inactive are those of the source. No cut-off for these calls is given here.

Experiments:
[1] = target: Polymerase basic protein 2 (Influenza A virus (strain A/Puerto Rico/8/1934 H1N1)) (UniProt P03428); experiment: Inhibition of influenza A virus polymerase PB2 expressed in HEK293T cells cotransfected with PGK-renilla-luciferase assessed as remaining activity at 10 uM pretreated with cells for 2 hrs followed by enzyme addition and measured after 24 hrs by dual-Glo luciferase assay relative to control; assay type: cell-based; conditions: time 26.0 hrs
[2] = target: Polymerase basic protein 2 (Influenza A virus (strain A/Puerto Rico/8/1934 H1N1)) (UniProt P03428); experiment: Inhibition of influenza A virus polymerase PB2 expressed in HEK293T cells cotransfected with PGK-renilla-luciferase at 10 uM pretreated with cells for 2 hrs followed by enzyme addition and measured after 24 hrs by dual-Glo luciferase assay relative to control; assay type: cell-based; conditions: time 26.0 hrs
[3] = target: T1, Polymerase basic protein 2 (Influenza A virus (strain A/Puerto Rico/8/1934 H1N1), UniProt P03428); experiment: Inhibition of influenza A virus polymerase PB2 expressed in HEK293T cells cotransfected with PGK-renilla-luciferase pretreated with cells for 2 hrs followed by enzyme addition and measured after 24 hrs by dual-Glo luciferase assay; assay type: cell-based
Influenza A virus [4] = experiment: Antiviral activity against Influenza A virus A/WSN/33(H1N1) infected in A549 cells assessed as reduction in cell cytopathic effect incubated with cells for 2 hrs prior to viral infection followed by MDCK cells addition at 24 hrs pi and measured after 72 hrs by Reed-Muench method; assay type: functional, organism-based
[5] = Cytotoxicity against human A549 cells assessed as reduction in cell viability incubated for 96 hrs by CCK-8 method; assay type: toxicity, cell-based
[6] = Selectivity index, ratio of CC50 for human A549 cells to EC50 for antiviral activity against Influenza A virus A/WSN/33(H1N1) infected in A549 cells; assay type: toxicity, cell-based; conditions: read-out: Ratio CC50/EC50
[7] = target: T1, Polymerase basic protein 2; experiment: Binding affinity to recombinant Influenza A virus polymerase PB2 cap-binding domain (318 to 413 residues) assessed as dissociation constant by ITC method
Influenza A virus [8] = experiment: Antiviral activity against wild type Influenza A/WSN/33 at 0.3 uM; assay type: functional, organism-based
[9] = target: Voltage-gated inwardly rectifying potassium channel KCNH2 (Homo sapiens, UniProt Q12809); experiment: Inhibition of hERG by manual patch clamp method; assay type: toxicity
[10] = Stability in mouse plasma assessed as half life; assay type: ADME, cell-free
[11] = Toxicity in BALB/c mouse assessed as animal death at 40 mg/kg, po administered once daily for 3 days; assay type: organism-based; conditions: in vivo, 72 h, time 3 day
[12] = Toxicity in BALB/c mouse assessed as poisoning symptom at 40 mg/kg, po administered once daily for 3 days; assay type: organism-based; conditions: in vivo, 72 h, time 3 day
[13] = Toxicity in BALB/c mouse assessed as change in body weight at 40 mg/kg, po administered for 3 days; assay type: organism-based; conditions: in vivo, 72 h, time 3 day
[14] = Toxicity in BALB/c mouse assessed as change in ALT level at 40 mg/kg, po administered for 3 days; assay type: organism-based; conditions: in vivo, 72 h, time 3 day
[15] = Toxicity in BALB/c mouse assessed as change in AST level at 40 mg/kg, po administered for 3 days; assay type: organism-based; conditions: in vivo, 72 h, time 3 day
[16] = Toxicity in BALB/c mouse assessed as change in Cr level at 40 mg/kg, po administered for 3 days; assay type: organism-based; conditions: in vivo, 72 h, time 3 day
Influenza A virus [17] = experiment: Antiviral activity against Influenza A virus A/WSN/33(H1N1) infected in BALB/c mouse assessed as log reduction in lung viral titer at 12 mg/kg, po BID administered starting from 2 hrs before infection and measured on day 3 (reference value: 6.916 +/- 0.4736); assay type: functional; conditions: time 3 day
Influenza A virus [18] = experiment: Antiviral activity against Influenza A virus A/WSN/33(H1N1) infected in BALB/c mouse assessed as log10 reduction in viral titer at 12 mg/kg, po BID administered starting from 2 hrs before infection and measured on day 3; assay type: functional; conditions: time 3 day
[19] = Toxicity in BALB/c mouse infected with Influenza A virus A/WSN/33(H1N1) assessed as body weight loss at 12 mg/kg, po BID administered starting from 2 hrs before infection and measured on day 3; assay type: organism-based; conditions: in vivo, 72 h, time 3 day
Influenza A virus [20] = experiment: Antiviral activity against Influenza A virus A/WSN/33(H1N1) infected in BALB/c mouse assessed as recovery of AST level at 12 mg/kg, po BID administered starting from 2 hrs before infection and measured on day 3; assay type: functional, organism-based; conditions: time 3.0 day
Influenza A virus [21] = experiment: Antiviral activity against Influenza A virus A/WSN/33(H1N1) infected in BALB/c mouse assessed as recovery of ALT level at 12 mg/kg, po BID administered starting from 2 hrs before infection and measured on day 3; assay type: functional, organism-based; conditions: time 3.0 day
Influenza A virus [22] = experiment: Antiviral activity against Influenza A virus A/WSN/33(H1N1) infected in BALB/c mouse assessed as increase in survival ratio at 12.5 to 25 mg/kg, po BID administered starting from 2 days post-infection to 9 days and measured for 15 days; assay type: functional; conditions: dose 12.5-25 mg/kg, time 15 day
[23] = Toxicity in BALB/c mouse infected with Influenza A virus A/WSN/33(H1N1) assessed as body weight loss at 12.5 to 25 mg/kg, po BID administered starting from 2 days post-infection to 9 days and measured for 15 days; assay type: organism-based; conditions: in vivo, 360 h, dose 12.5-25 mg/kg, time 15 day
[24] = target: Polymerase basic protein 2 (Influenza A virus (strain A/Puerto Rico/8/1934 H1N1)) (UniProt P03428); experiment: Potency index, ratio of m7GTP Kd to test compound Kd for recombinant Influenza A virus polymerase PB2 cap-binding domain (318 to 413 residues)

T1 sequence (P03428 whole entry): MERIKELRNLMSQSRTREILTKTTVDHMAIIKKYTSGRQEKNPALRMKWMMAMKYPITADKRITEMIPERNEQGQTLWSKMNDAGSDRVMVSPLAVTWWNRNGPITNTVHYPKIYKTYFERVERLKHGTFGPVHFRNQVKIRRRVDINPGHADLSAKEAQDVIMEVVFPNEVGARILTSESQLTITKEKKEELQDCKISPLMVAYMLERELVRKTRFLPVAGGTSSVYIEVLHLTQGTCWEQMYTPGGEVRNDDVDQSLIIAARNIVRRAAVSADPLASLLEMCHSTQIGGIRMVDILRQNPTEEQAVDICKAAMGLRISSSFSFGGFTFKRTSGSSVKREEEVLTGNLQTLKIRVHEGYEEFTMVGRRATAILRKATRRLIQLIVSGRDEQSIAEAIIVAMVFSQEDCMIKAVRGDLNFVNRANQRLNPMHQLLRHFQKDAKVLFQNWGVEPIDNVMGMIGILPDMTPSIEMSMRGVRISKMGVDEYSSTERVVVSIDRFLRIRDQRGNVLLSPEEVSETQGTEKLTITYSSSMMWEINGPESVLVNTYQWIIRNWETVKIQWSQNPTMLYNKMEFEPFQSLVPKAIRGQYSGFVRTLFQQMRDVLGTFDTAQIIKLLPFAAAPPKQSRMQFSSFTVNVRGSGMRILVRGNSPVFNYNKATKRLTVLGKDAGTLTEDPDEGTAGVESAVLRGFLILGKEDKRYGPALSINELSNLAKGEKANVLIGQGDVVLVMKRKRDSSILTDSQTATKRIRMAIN
Chain of Polymerase basic protein 2 (Influenza A virus (strain A/Puerto Rico/8/1934 H1N1)) (P03428 whole entry, looked up, the tested form may be a part): as the sequence (P03428 whole entry) above
Chain of Voltage-gated inwardly rectifying potassium channel KCNH2 (Q12809 whole entry): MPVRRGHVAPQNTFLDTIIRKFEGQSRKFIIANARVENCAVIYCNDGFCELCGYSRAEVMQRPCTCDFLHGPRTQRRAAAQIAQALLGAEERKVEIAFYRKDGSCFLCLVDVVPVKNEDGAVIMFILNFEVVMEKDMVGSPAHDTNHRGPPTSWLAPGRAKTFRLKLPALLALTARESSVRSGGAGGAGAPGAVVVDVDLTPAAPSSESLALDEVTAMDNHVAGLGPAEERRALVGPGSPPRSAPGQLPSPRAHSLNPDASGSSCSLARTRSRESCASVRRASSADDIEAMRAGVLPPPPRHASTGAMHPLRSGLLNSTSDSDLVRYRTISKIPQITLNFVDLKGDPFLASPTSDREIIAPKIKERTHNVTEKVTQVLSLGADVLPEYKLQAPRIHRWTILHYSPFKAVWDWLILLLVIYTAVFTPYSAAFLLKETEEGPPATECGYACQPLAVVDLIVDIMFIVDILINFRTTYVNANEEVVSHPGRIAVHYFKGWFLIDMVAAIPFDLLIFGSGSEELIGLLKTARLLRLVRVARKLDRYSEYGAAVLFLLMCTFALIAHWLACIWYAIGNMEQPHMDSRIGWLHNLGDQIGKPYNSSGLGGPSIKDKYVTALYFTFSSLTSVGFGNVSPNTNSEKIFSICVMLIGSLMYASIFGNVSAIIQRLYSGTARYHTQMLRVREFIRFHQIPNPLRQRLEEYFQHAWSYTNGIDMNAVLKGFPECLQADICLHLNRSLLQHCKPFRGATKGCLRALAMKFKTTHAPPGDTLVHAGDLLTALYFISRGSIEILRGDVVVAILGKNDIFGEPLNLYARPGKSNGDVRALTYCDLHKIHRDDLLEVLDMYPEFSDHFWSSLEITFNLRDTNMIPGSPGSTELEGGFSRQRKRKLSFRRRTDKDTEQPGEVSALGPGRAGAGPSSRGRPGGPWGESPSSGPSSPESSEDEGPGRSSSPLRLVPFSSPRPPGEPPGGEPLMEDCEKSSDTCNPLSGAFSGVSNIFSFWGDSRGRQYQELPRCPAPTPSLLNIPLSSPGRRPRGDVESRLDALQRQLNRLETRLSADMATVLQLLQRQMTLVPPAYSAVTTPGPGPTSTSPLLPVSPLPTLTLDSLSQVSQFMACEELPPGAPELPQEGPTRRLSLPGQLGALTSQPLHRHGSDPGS

Structure (SMILES)	Activity [1] [%]	inhibition [2] [%]	IC50 [3] [nM]	EC50 (Influenza A virus [4]) [nM]	other results
CC(C)(C)N(CC(=O)O)Nc1nc(-c2c[nH]c3ncc(F)cc23)ncc1F	0.3	99.7	60	30	CC50 at 96 h [5]: > 100000 nM; selectivity ratio [6]: > 2920; Kd [7]: 46.2 nM; Activity (Influenza A virus [8]): Active; IC50 [9]: > 10000 nM; half-life [10]: 12 h; Activity [11]: Non-Toxic; Activity [12]: Non-Toxic; Activity [13]: Non-Toxic; Activity [14]: Non-Toxic; Activity [15]: Non-Toxic; Activity [16]: Non-Toxic; log(activity) (Influenza A virus [17]): 4.988; log(activity) (Influenza A virus [18]): 2; Activity [19]: Non-Toxic; Activity (Influenza A virus [20]): Active; Activity (Influenza A virus [21]): Active; Activity (Influenza A virus [22]): 85.7%; Activity [23]: Non-Toxic; Ratio [24]: 3850
O=C(O)[C@H]1C2CCC(CC2)[C@@H]1Nc1nc(-c2c[nH]c3ncc(F)cc23)ncc1F [PIMODIVIR]	0.1	99.9	4	1	log(activity) (Influenza A virus [17]): 0.964; log(activity) (Influenza A virus [18]): 6
O=C(O)[C@@H]1CC2(CC2)CN1Nc1nc(-c2c[nH]c3ncc(F)cc23)ncc1F	21	79	3070	1450	CC50 at 96 h [5]: 87000 nM; selectivity ratio [6]: 60; Kd [7]: 145 nM
O=C(O)[C@@H]1CCCN1Nc1nc(-c2c[nH]c3ncc(F)cc23)ncc1F	62	38			
O=C(O)CN(Cc1ccccc1)Nc1nc(-c2c[nH]c3ncc(F)cc23)ncc1F	> 100	0			
O=C(O)CN(Nc1nc(-c2c[nH]c3ncc(F)cc23)ncc1F)C1CCCC1	46	54			
O=C(O)CN(Nc1nc(-c2c[nH]c3ncccc23)ncc1F)C1CCCC1	58	42			
O=C(O)[C@@H]1CCCCN1Nc1nc(-c2c[nH]c3ncc(F)cc23)ncc1F	12	88	1450	1150	CC50 at 96 h [5]: > 100000 nM; selectivity ratio [6]: > 87
O=C(O)[C@@H]1CCCCN1Nc1nc(-c2c[nH]c3ncccc23)ncc1F	67	33			
CC(C1CC1)N(CC(=O)O)Nc1nc(-c2c[nH]c3ncc(F)cc23)ncc1F (stereo not given)	41	59			
CC(C)(C)N(CC(=O)O)Nc1nc(-c2c[nH]c3ncccc23)ncc1F	0.2	99.8	290	170	CC50 at 96 h [5]: > 100000 nM; selectivity ratio [6]: > 597; Kd [7]: 468 nM
CCOC(=O)C1=C[C@@H](OC(CC)CC)[C@H](NC(C)=O)[C@@H](N)C1 [OSELTAMIVIR]				40	
O=C(O)[C@@H]1C[C@@H]2CCCC[C@@H]2N1Nc1nc(-c2c[nH]c3ncc(F)cc23)ncc1F	0.1	99.9	360	50	CC50 at 96 h [5]: 54100 nM; selectivity ratio [6]: 1024; Kd [7]: 202 nM
O=C(O)CN(Nc1nc(-c2c[nH]c3ncccc23)ncc1F)C1CCC1	> 100	0			
O=C(O)[C@@H]1Cc2ccccc2CN1Nc1nc(-c2c[nH]c3ncccc23)ncc1F	73	27			
CC(C)(C)CN(CC(=O)O)Nc1nc(-c2c[nH]c3ncccc23)ncc1F	65	35			
O=C(O)[C@@H]1Cc2ccccc2CN1Nc1nc(-c2c[nH]c3ncc(F)cc23)ncc1F	62	38			
O=C(O)CN(Nc1nc(-c2c[nH]c3ncccc23)ncc1F)C1CCCCC1	34	65			
